We go through one compound from patent publication US10624895B2, “Methods of sensitizing a patient with glioma to a therapeutic agent by administering small hairpin RNA targeting PDZ-RHOGEF” (THE TRANSLATIONAL GENOMICS RESEARCH INSTITUTE, priority 2016, dated 2020).

The subject of one assay is cleaved PARP. Kind of assay: Immunoblot for cleaved PARP (TMZ-induced apoptosis). The class given is cell-based, human. The following applies: T98G cells, PPF (5 μM) in combination with TMZ (250 μM), compared to TMZ alone. The method, then: (§1) FIGS. 26A, 26B, and 26C depict that PPF sensitizes GBM cells to TMZ and radiotherapy. FIG. 26A—A clonogenic assay was used to assess T98G and GBM43 cells survival after TMZ and radiation treatment. Cells were pre-treated with 5 μM PPF for 24 hours, and then either treated with 250 μM TMZ for 24 hours or exposed to 2 Gy radiation. Graph depicts the surviving fraction in the treated cells compared to vehicle (VC) treated or non-treated (NT) cells, **p<0.01. FIG. 26B—T98G glioma cells were treated with vehicle, PPF (5 μM) TMZ (250 μM) and PPF in combination with TMZ. TMZ-induced apoptosis was assayed by immunoblot analysis of cell lysates with an antibody to cleaved PARP. Immunoblotting for α-Tubulin was included as a loading control. FIG. 26C—T98G, GBM10, and GBM43 cells were treated with PPF ([…], and then immunoblotted to assess the activation of AKT and NF-κB. Immunoblotting for β-Actin is included as a loading control.
(§2) Referring now to FIGS. 26A, 26B, and 26C: Knockdown of TROY expression with shRNA decreases TMZ resistance in GBM cells in vitro (See Reference 42). […] Following combination therapy, cells were trypsinized, counted, and plated in a 6-well culture dish at densities of 100, 250, and 500 cells per well in triplicate. Cells were incubated for 12 days then fixed, stained with 0.5% crystal violet solution, and counted manually by blinded observers. […]
For orientation: Immunoblotting shows a protein as a band on a membrane.

The next assay deals with microglia. The following applies: by decreasing TROY expression; cited from earlier work.
The next assay relates to T98G cells. The assay can be described thus: EGF-stimulated transwell migration assay. The settings on record: serum starved T98G, PPF one hour prior to EGF (10 ng/mL), 24 hours. The class given is cell-based, human. The procedure: FIG. 33 depicts the impact of PPF treatment on EGF-stimulated glioma cell migration. Serum starved T98G cells were treated with PPF at various concentrations one hour prior to EGF addition (10 ng/mL). Cell migration was assessed using the transwell migration assay after 24 hours. *p<0.001; **p<0.01.
Thus, the capacity of TROY to stimulate glioma cell invasion and increase TMZ and IR resistance could rely on the formation of a TROY-EGFR signaling complex. This association could activate, or potentiate, shared signaling pathways survival pathways as well as activate distinct TROY signaling pathways that mediate TROY receptor specific functional activities. Therefore, therapeutic approaches targeting TROY and/or both receptors may yield increased therapeutic benefit.

The subject of a further assay is TNFR1. Kind of assay: Western blot of TNFR1 expression after PPF treatment. It counts as cell-based, human. The following applies: T98G, GBM10, GBM43 cells, 5 μM PPF, 24 hours. The method, then: FIG. 24A—a Western blot analysis of TROY expression in T98G cells. Cells were treated with PPF at indicated concentrations for 6 hrs, lysed, and cell lysates immunoblotted with anti-TROY antibody. Immunoblotting of α-Tubulin in cell lysates is included as a loading control. FIG. 24B—Western blot analysis of TROY expression in T98G, GBM43, and GBM10 cells. Cells were treated with PPF at indicated concentrations for 24 hrs, lysed, and cell lysates immunoblotted with anti-TROY and α-Tubulin antibodies. FIG. 24C—Western Blot analysis of TROY expression in GBM10 and GBM43 primary glioma cells. Cells were treated with 5 μM PPF, lysed at the indicated time-points, and the lysates immunoblotted with an anti-TROY antibody. Immunoblotting of β-Actin in cell lysates is included as a loading control. FIG. […]—Western Blot analysis of T98G, GBM10 and GBM43 glioma cells treated with 5 μM PPF for 24 hours. […]
Referring now to FIGS. 24A, 24B, 24C, and 24D: The inventors investigated if PPF could be utilized pharmacologically to decrease TROY expression in GBM cells. […] Cells were treated with increasing concentration of PPF, 1 to 20 μM lysed, and TROY expression assessed by immunobloting. […] Protein concentrations were determined using the BCA Assay (Pierce). […] Protein bands were detected using SuperSignal® Chemiluminescent Substrate (Pierce) with a UVP BioSpectrum 500 Imaging System.

The next assay has as its system NF-κB. Kind of assay: Immunoblot of NF-κB activation after PPF. It counts as cell-based, human. The settings on record: T98G and GBM43 cells treated with PPF. The procedure: as §1, §2
The test system of another assay is TROY. Kind of assay: Western blot of TROY expression after PPF treatment. The class given is cell-based, human. The procedure: FIG. 24A—a Western blot analysis of TROY expression in T98G cells. Cells were treated with PPF at indicated concentrations for 6 hrs, lysed, and cell lysates immunoblotted with anti-TROY antibody. Immunoblotting of α-Tubulin in cell lysates is included as a loading control. FIG. 24B—Western blot analysis of TROY expression in T98G, GBM43, and GBM10 cells. Cells were treated with PPF at indicated concentrations for 24 hrs, lysed, and cell lysates immunoblotted with anti-TROY and α-Tubulin antibodies. FIG. 24C—Western Blot analysis of TROY expression in GBM10 and GBM43 primary glioma cells. Cells were treated with 5 μM PPF, lysed at the indicated time-points, and the lysates immunoblotted with an anti-TROY antibody. Immunoblotting of β-Actin in cell lysates is included as a loading control. FIG. […]—Western Blot analysis of T98G, GBM10 and GBM43 glioma cells treated with 5 μM PPF for 24 hours. Lysates were immunoblotted with anti-TROY, anti-TNFR1, anti-EGFR, and β-Actin antibodies.
Referring now to FIGS. 24A, 24B, 24C, and 24D: The inventors investigated if PPF could be utilized pharmacologically to decrease TROY expression in GBM cells. The long-term established cell line T98G was first utilized to test the efficacy of PPF. Cells were treated with increasing concentration of PPF, 1 to 20 μM lysed, and TROY expression assessed by immunobloting. Briefly, monolayers of cells were washed in phosphate-buffered saline (PBS) containing 1 mM phenylmethylsulfonylfluoride and 1 mM sodium orthovanadate and then lysed in 2×SDS sample buffer containing protease and phosphatase inhibitors. Protein concentrations were determined using the BCA Assay (Pierce). Thirty micrograms of total protein was loaded per lane and separated by SDS-PAGE. After transfer, the nitrocellulose membrane (Invitrogen) was blocked with either 5% nonfat-milk or 5% BSA in TB ST before addition of primary antibodies and followed with peroxidase-conjugated secondary antibody (Promega). Protein bands were detected using SuperSignal® Chemiluminescent Substrate (Pierce) with a UVP BioSpectrum 500 Imaging System.

Take `CCCn1cnc2c1c(=O)n(CCCCC(C)=O)c(=O)n2C` [PPF, 3-methyl-1-(5-oxohexyl)-7-propyl-3,7-dihydro-1H-purine-2,6-dione]: the “cleaved PARP” value in the assay with cleaved PARP is “increase in cleaved PARP”. Further, the migration of microglia entry in the assay with microglia is recorded as “inhibit the migration of microglia”. Also, the “EGF-stimulated glioma cell migration” value with T98G cells is “reduced EGF-stimulated glioma cell migration”. Also, in the assay with TNFR1, the TNFR1 expression result was “did not affect the expression”. In the assay on NF-κB, the NF-κB phosphorylation entry is “effectively decreased”. Further, the “TROY expression over time” value in the assay on TROY (GBM10 and GBM43 cells, 5 μM PPF, varying lengths of time) is on record as “decreased in a time-dependent manner”. In addition, the TROY expression entry in the assay on TROY (T98G cells, 1 μM PPF) was “significant suppression”; in the assay with TROY (T98G cells, PPF 1 to 20 μM, 6 hrs), “decreased in concentration dependent manner”; in the assay with TROY (T98G, GBM10, GBM43 cells, 5 μM PPF, 24 hrs), “effective in lowering TROY expression”.
